How the values were obtained:
[1] = locomotor activity in an open field (activity index); assay type: in vivo, Sabra mice; settings: 1 mg/kg i.p.; for effect on activity (mean number of crossings per minute; comparison study): open field (FIG. 10, Example 3)
Procedure: Activity of the mice was assessed in an open field (20×30 cm) divided into 12 squares of equal size. Two mice were observed simultaneously for 5 minutes. The activity test was performed on day 11 of the experiment. Locomotor activity was recorded by counting the number of crossings by the mice at one minute intervals. The results, depicted in FIG. 4, are presented as the mean number of crossings per minute.
Activity of the mice was assessed in an open field (20×30 cm) divided into 12 squares of equal size, as detailed in Example 2. The results, depicted in FIG. 10, are presented as the mean number of crossings per minute.

[2] = total food consumption in mice; assay type: in vivo, Sabra mice; settings: 1 mg/kg i.p.; for effect on total food consumption in the second week (comparison study): second week during administration, vs control (FIG. 9B, Example 3)
Procedure: (§1) Young female Sabra mice were assigned at random to different groups (untreated controls or treated with 1 mg/kg Compound X Intra Peritoneally) of 10 mice per cage. The weights of the animals were similar at the beginning of the experiment. All cages contained wood-chip bedding and were placed in a temperature-controlled room at 22° C., on a 12-h light/dark cycle (lights on at 07.00 h). The mice had free access to water 24 h a day. The mice were fed ad-libitum, body weight was measured twice a week during the experiment and food consumption was calculated.
Total food consumption was evaluated in the first week before treatment and at the second week during the treatment (FIGS. 2A and 2B).
(§2) This study compared the effects of Compound X and Rimonabant. Female Sabra mice (32 g average weight) were divided randomly to 3 experimental groups: (a) control; (b) Compound X; and (3) Rimonabant, 10 mice in each group. Food consumption and weight were evaluated during the experiment. During the second week, mice were evaluated for cognitive function during 5 days using the eight arm maze. 15 min before evaluation mice were injected i.p. with either saline or 1 mg/kg Compound X or Rimonabant (days 8-12).
Total food consumption was evaluated in the first week before treatment and at the second week during the treatment (FIGS. 9A and 9B, respectively).

[3] = tested on: Serotonin (5-HT) levels in the hypothalamus; assay: serotonin (5-HT) levels in the hypothalamus (HPLC-ECD); assay type: in vivo, mice; settings: treated group vs. control, 1 mg/kg i.p., p<0.05 (FIG. 6)
Procedure: (§3) Mice were decapitated and their brains rapidly removed, and the hypothalamus and hippocampus were dissected. 2-AG levels in the hypothalamus were evaluated using TLC followed by GC-MS analysis.
(§4) Serotonin (5-HT) and norepinephrine (NE) were valuated in the hypothalamus (serotonin and norepinephrine) and hippocampus (norepinephrine), using HPLC-ECD.

[4] = cognitive function evaluated by an 8 arm maze; assay type: in vivo, Sabra mice; settings: for effect on cognitive function (8 arm maze; comparison study): 1 mg/kg, second week of treatment (FIG. 12, Example 3)
Procedure: Mice were subjected to the treatment regimen outlined in Example 1, and during the second week of treatment their cognitive function was evaluated by an 8 arm maze on the second week of the experiment 15 minutes after injection. Two hours before the test, the mice were on a water deprivation schedule. At the end of each arm there was a drop of water as a reward. Each mouse was evaluated for its performance in the maze. The mice were observed until they made entries to all eight arms or until they completed 24 entries (whichever came first). The results, depicted in FIG. 3, were calculated as AUC (area under the curve) as follows: day2+day3+day4+day5−4(day1).
as §2
Mice were subjected to treatment with Compound X (1 mg/kg) or Rimonabant (1 mg/kg), and during the second week of treatment their cognitive function was evaluated by an 8 arm maze as described above in Example 2.

[5] = neurological score by the NSS method; assay type: in vivo, Sabra mice; settings: 1 mg/kg i.p., day 10 (FIG. 11, Example 3)
Procedure: as §2
Neurological score was evaluated by the NSS method Neurological function was assessed by a 10 point scale based on reflexes and task performance 37: Exit from a circle 1 meter in diameter in less than 1 minute, seeking, walking a straight line, startle reflex, grasping reflex, righting reflex, placing reflex, corneal reflex, maintaining balance on a beam 3, 2 and 1 cm in width, climbing onto a square and a round pole. For each task failed or abnormal reflex reaction a score of 1 was assigned. Thus, a higher score indicates poorer neurological function on day 10.

[6] = tested on: norepinephrine (NE) levels; assay: norepinephrine (NE) levels in hippocampus and hypothalamus (HPLC-ECD); assay type: in vivo, mice; settings: 1 mg/kg i.p.
Procedure: as §3, §4

[7] = tested on: ALT levels; assay: ALT levels in mice; assay type: in vivo, Sabra mice; settings: 1 mg/kg i.p., mice sacrificed 71 days after treatment (FIG. 13, Example 3)
Procedure: as §2
Mice were sacrificed 71 days after treatment, and ALT levels were measured.

[8] = body weight of mice during treatment; assay type: in vivo, Sabra mice; settings: for effect on weight vs control (comparison study): 1 mg/kg i.p. days 8-12, female Sabra mice (FIG. 8, Example 3)
Procedure: as §1
Compound X may also be given orally. Compound X (gavage) or saline (control) were administered to Sabra mice by oral gavage.
as §2

[9] = tested on: 2-AG levels in the hypothalamus; assay: 2-AG levels in the hypothalamus (TLC followed by GC-MS); assay type: in vivo, mice; settings: treated group vs. control, 1 mg/kg i.p., p<0.05 (FIG. 5)
Procedure: as §3

[10] = molecular target: T1, PPAR-α (Homo sapiens, UniProt Q07869); settings: reported by Giuseppe et al. 2006; read-out: EC50 for stimulating transcriptional activity of PPAR-α; cited from earlier work
T1 sequence (Q07869 1-468): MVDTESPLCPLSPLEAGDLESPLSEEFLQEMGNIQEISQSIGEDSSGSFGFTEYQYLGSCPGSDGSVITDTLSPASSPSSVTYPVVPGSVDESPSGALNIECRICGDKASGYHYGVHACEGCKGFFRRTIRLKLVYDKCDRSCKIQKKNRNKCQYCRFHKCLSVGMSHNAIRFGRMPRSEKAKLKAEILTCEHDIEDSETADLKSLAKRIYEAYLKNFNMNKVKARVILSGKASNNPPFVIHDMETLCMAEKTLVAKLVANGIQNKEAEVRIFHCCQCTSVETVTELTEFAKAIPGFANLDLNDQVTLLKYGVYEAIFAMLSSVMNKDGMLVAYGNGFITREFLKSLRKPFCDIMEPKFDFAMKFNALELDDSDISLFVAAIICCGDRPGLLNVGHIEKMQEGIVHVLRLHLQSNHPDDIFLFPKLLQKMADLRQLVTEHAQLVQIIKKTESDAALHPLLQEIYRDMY

CCCCCCCC/C=C\CCCCCCCC(=O)N[C@H](CO)C(C)C [Compound X, ((Z-Octadec)-9-enoic acid 1-hydroxymethyl-2-methyl-propyl)-amide]
effect on activity (mean number of crossings per minute) ([1]; day 11, open field, p<0.001 (FIG. 4, Example 2)): significant increase in the activity | effect on activity (mean number of crossings per minute; comparison study) [1]: significant increase in the activity | increased activity ([1]; p<0.001 (Examples 1-2 conclusion)): 36% | decrease in food consumption ([2]; p<0.05 (Examples 1-2 conclusion)): 7% | effect on total food consumption in the second week (comparison study) [2]: decreased food consumption significantly | effect on total food consumption in the second week ([2]; second week during treatment, P<0.05 (FIG. 2B, Example 1)): significantly decreased food consumption | effect on serotonin levels in the hypothalamus [3]: increased significantly | improvement in cognitive function (8 arm maze) ([4]; 1 mg/kg i.p. (Examples 1-2 conclusion)): 400% | effect on cognitive function (8 arm maze, AUC) ([4]; 1 mg/kg i.p., second week, 15 minutes after injection (FIG. 3, Example 2)): improved significantly | effect on cognitive function (8 arm maze; comparison study) [4]: improved significantly | effect on neurological score (NSS, 10 point scale; higher score = poorer function) [5]: did not change the neurological score | effect on NE levels in the hippocampus ([6]; p<0.05 (FIG. 7A)): significantly increased | effect on NE levels in the hypothalamus ([6]; p<0.05 (FIG. 7B)): significantly increased | effect on ALT levels [7]: slightly increased ALT levels | duration of the decrease in weight after administration ([8]; 1 mg/kg Intra Peritoneally, female Sabra mice (Example 1)): about 15 days | effect on weight vs control (comparison study) [8]: significant decrease in weight | continuation of the weight effect after re-administration on day 43 ([8]; administered again on day 43, female Sabra mice (Example 3)): 28 days | continuation of the weight effect without further administration ([8]; after 1 mg/kg i.p. days 8-12, female Sabra mice (Example 3)): 31 days | effect on body weight, oral gavage ([8]; oral gavage vs saline control, Sabra mice (FIG. 1B)): significantly decreasing the weight | effect on 2-AG levels in the hypothalamus [9]: significant decrease

CCCCCCCC/C=C\CCCCCCCC(=O)N[C@H](C)CO [KDS-5104, (Z)—(R)-9-octadecenamide, N-2(hydroxyethyl,1-methyl)]
EC50 [10]: 100 nM

Cc1c(C(=O)NN2CCCCC2)nn(-c2ccc(Cl)cc2Cl)c1-c1ccc(Cl)cc1 [Rimonabant, reference compound]
effect on activity (mean number of crossings per minute; comparison study) [1]: significantly decreased activity | effect on total food consumption in the second week (comparison study) [2]: no significant differences | effect on cognitive function (8 arm maze; comparison study) [4]: did not significantly affect cognitive function | effect on neurological score (NSS, 10 point scale; higher score = poorer function) [5]: tendency to increase it | effect on ALT levels [7]: raised them significantly | effect on weight vs control (comparison study) [8]: no significant difference in weight loss

Reference: patent publication US9428448B2, “Compounds and methods of treating obesity” (Yissum Research Development Company of the Hebrew …, priority 2008, dated 2016)
